Results taken from ChEMBL document CHEMBL5518186, “Discovery of the cereblon-recruiting tubulin PROTACs effective in overcoming Taxol resistance in vitro and in vivo” (Eur J Med Chem, 2024).
The source made the active and inactive calls. The rule behind the calls is not given here.

How the values were obtained:
[1] = target: Protein cereblon/Tubulin beta-3 chain (Homo sapiens, UniProt Q13509+Q96SW2); test: Protac activity at CRBN/beta3-tubulin in human A549/Taxol cells assessed as reduction in beta3-tubulin level at 0.25 uM pretreated with CA-4 for 2 hrs followed by compound addition and measured after 48 hrs by immunoblotting analysis; format: cell-based
[2] = test system: A549; test: Induction of cell cycle arrest in human A549 cells assessed as accumulation of cells at G0/G1 phase at 0.002 uM incubated for 24 hrs by PI staining based flow cytometry analysis (reference value: 66.75%); format: functional
[3] = test system: A549; test: Induction of cell cycle arrest in human A549 cells assessed as accumulation of cells at G2/M phase at 0.002 uM incubated for 24 hrs by PI staining based flow cytometry analysis (reference value: 31.86%); format: functional

Chain of Protein cereblon/Tubulin beta-3 chain (Q13509 whole entry, looked up): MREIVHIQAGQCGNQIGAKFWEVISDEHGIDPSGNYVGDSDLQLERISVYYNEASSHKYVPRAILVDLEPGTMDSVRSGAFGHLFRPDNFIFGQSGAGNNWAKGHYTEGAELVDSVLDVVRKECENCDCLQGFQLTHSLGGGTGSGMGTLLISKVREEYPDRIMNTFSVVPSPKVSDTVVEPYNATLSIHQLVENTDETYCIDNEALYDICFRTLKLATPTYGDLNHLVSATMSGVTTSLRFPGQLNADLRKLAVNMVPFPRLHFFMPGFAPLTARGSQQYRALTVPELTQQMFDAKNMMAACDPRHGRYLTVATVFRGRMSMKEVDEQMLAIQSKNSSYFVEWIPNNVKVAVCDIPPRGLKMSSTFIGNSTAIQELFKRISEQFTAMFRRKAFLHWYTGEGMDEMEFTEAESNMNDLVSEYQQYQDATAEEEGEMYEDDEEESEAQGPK
Chain of Protein cereblon/Tubulin beta-3 chain (Q96SW2 whole entry, looked up): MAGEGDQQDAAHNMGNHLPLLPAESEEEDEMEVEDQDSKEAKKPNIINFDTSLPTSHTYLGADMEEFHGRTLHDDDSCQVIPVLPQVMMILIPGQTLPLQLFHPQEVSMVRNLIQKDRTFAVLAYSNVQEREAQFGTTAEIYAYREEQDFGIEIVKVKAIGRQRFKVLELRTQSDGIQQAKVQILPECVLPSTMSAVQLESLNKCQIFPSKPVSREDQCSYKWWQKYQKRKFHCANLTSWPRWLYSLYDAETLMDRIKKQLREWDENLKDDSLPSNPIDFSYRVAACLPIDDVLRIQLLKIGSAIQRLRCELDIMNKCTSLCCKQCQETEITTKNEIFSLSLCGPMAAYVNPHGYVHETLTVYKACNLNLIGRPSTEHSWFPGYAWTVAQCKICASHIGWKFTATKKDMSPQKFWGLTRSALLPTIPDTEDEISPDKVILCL

Activity [1]: inactive
SMILES: COc1ccc(/C=C\c2cc(OC)c(OC)c(OC)c2)cc1OC(=O)CCCNc1cccc2c1C(=O)N(C1CCC(=O)NC1=O)C2=O (stereo not drawn)
Activity [2]: 57.32%
Activity [3]: 37.03%
